Data on 7 molecules can be found in US11712055B2, “Stevia composition” (PURECIRCLE SDN. BHD., priority 2011, dated 2023).

For series [1] the following is noted: cited from earlier work; for times sweeter than sucrose: Tanaka 1987, Phillips 1989; for times sweeter than sucrose (sensory evaluations): Crammer and Ikan 1986.
The conditions of series [2]: Chang and Cook 1983; cited from earlier work.
For series [3] the following is noted: Kinghorn 2002; cited from earlier work.
The nature of a further series: Water solubility. Format: physicochemical. To be noted: in water at 25° C.

Consider `C=C1C[C@@]23CC[C@H]4[C@@](C)(CCC[C@@]4(C)C(=O)O[C@@H]4O[C@H](CO)[C@@H](O)[C@H](O)[C@H]4O)[C@@H]2CC[C@]1(O[C@@H]1O[C@H](CO)[C@@H](O)[C@H](O)[C@H]1O[C@@H]1O[C@@H](C)[C@H](O)[C@@H](O)[C@H]1O)C3` [Dulcoside A], for which the “times sweeter than sucrose” value in series [1] is given as 30 times.

On to `C=C1C[C@@]23CC[C@H]4[C@@](C)(CCC[C@@]4(C)C(=O)O[C@@H]4O[C@H](CO)[C@@H](O)[C@H](O)[C@H]4O)[C@@H]2CC[C@]1(O[C@@H]1O[C@H](CO)[C@@H](O)[C@H](O)[C@H]1O[C@@H]1O[C@H](CO)[C@@H](O)[C@H](O)[C@H]1O)C3` [stevioside], for which the “times sweeter than sucrose” value in series [1] is reported as 110-270 times. In series [2], the “stability in carbonated beverages” value was “heat and pH stability”.

For the molecule `C=C1C[C@@]23CC[C@H]4[C@@](C)(CCC[C@@]4(C)C(=O)O[C@@H]4O[C@H](CO)[C@@H](O)[C@H](O)[C@H]4O)[C@@H]2CC[C@]1(O[C@@H]1O[C@H](CO)[C@@H](O)[C@H](O[C@@H]2O[C@H](CO)[C@@H](O)[C@H](O)[C@H]2O)[C@H]1O[C@@H]1O[C@H](CO)[C@@H](O)[C@H](O)[C@H]1O)C3` [Reb A, rebaudioside A], the “times sweeter than sucrose (sensory evaluations)” value in series [1] is reported as 350-450 times. Also, the “stability in carbonated beverages” value in series [2] was “heat and pH stability”.

Take rebaudioside C: in series [1], the “times sweeter than sucrose” value was 40-60 times.

In the case of Rebaudioside B [reb B], in series [1], the “times sweeter than sucrose (sensory evaluations)” value is 300-350 times. Moreover, the “water solubility (reported)” value in series [3] is given as “about 0.1%”.

For the molecule rebaudioside B [Example 3], the “water solubility of obtained material” value in “Water solubility” is recorded as “about 0.1 % (w/v)”.

Take `C=C1CC23CCC4C(C)(C(=O)[O-])CCCC4(C)C2CCC1(OC1OC(CO)C(O)C(OC2OC(CO)C(O)C(O)C2O)C1OC1OC(CO)C(O)C(O)C1O)C3.[K+]` (stereo not shown) [Example 5, reb B potassium salt]: in the series “Water solubility”, the “water solubility of obtained material” value is “about 0.1 % (w/v)”.
